Test system: 1A9 ovarian cancer cells
Assay: Anti-proliferative activity in 1A9 ovarian cancer cells
Type: cell-based
Conditions: for Antiproliferative activity (in words): antiproliferative assays, highest concentration tested 50 μM

| SMILES | Fold more active than epi-tubulysin V in the antiproliferative assays (antiproliferative assays (1A9 and MCF-7), relative to epi-tubulysin V) | Antiproliferative activity (in words) |
| --- | --- | --- |
| CC[C@H](C)[C@H](NC(=O)[C@H]1CCCCN1C)C(=O)N[C@H](C[C@@H](O)c1nc(C(=O)N[C@@H](Cc2ccccc2)C[C@H](C)C(=O)O)cs1)C(C)C [Compound 4, tubulysin V] | 30–45 fold |  |
| CC[C@H](C)[C@H](NC(=O)[C@@H](C)N(C)C)C(=O)N[C@H](CC(=O)c1nc(C(=O)N[C@@H](Cc2ccccc2)C[C@H](C)C(=O)O)cs1)C(C)C [Compound 21] |  | not active |
| CC[C@H](C)[C@H](NC(=O)[C@@H](C)N(C)C)C(=O)N[C@H](CC(=O)c1nc(C(=O)N[C@H](CCC(=O)O)Cc2ccccc2)cs1)C(C)C [Compound 22] |  | sub-micromolar activity |

Reference: publication PMC4183140 (Journal of medicinal chemistry, 2009)
